Results from ChEMBL document CHEMBL1201862, “PubChem BioAssay data set” (2004).
Active and inactive are the calls of the source.

Key:
[1] = cAMP pathway inhibition in counterscreen cell line – TR-FRET cAMP detection, counter-screen for MC4R biased antagonist project, dose response (AID 602305); assay type: functional, cell-based;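 note: U2OS cells stimulated with forskolin near its EC80 as the cAMP inducer; potency is for inhibition of forskolin-stimulated cAMP signaling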
[2] = target: Melanocortin receptor 4 (Homo sapiens, UniProt P32245); experiment: inhibitors of MC4R cAMP signaling – cell-based, TR-FRET, biased antagonists, dose response (AID 602298); assay type: functional;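 note: antagonist potency against agonist-stimulated cAMP production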
[3] = target: Protein disulfide-isomerase (Homo sapiens, UniProt P07237); experiment: inhibition of PDI-driven insulin aggregation – biochemical, turbidity, absorbance, cherry-picked samples, dose response (AID 602350); assay type: functional
[4] = Late-stage results from the probe development effort to identify antagonists of the G-protein coupled receptor 7 (GPR7): luminescence-based cell-based dose response counterscreen assay to determine cytotoxicity of antagonist compounds Set 2.; assay type: functional
[5] = target: Melanin-concentrating hormone receptor 1 (Homo sapiens, UniProt Q99705); experiment: Late-stage fluorescence-based counterscreen for antagonists of the G-protein coupled receptor 7 (GPR7): cell-based dose response assay to identify antagonists of the melanin-concentrating hormone receptor 1 (MCHR1). [Related pubchem assays (depositor defined):AID1861, AID1880, AID1952, AID2148, AID2251, AID2257, AID485339]; assay type: functional;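 note: stimulated with 30 nM MCH peptide agonist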
[6] = Late-stage luminescence-based cell-based dose response assay to identify antagonists of the G-protein coupled receptor 7 (GPR7): Cytotoxicity assay. [Related pubchem assays (depositor defined):AID1861, AID1880, AID1952, AID2148, AID2251, AID2257, AID485339]; assay type: functional
[7] = target: Proto-oncogene tyrosine-protein kinase receptor Ret (Homo sapiens, UniProt P07949); assay type: functional;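 note: measured within a kinome-wide profiling panel, RET as the panel member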
[8] = target: Aurora kinase A (Homo sapiens, UniProt O14965); assay type: functional;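 note: value from the Navigating the Kinome kinase panel profiling, panel entry STK6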
[9] = target: Vascular endothelial growth factor receptor 2 (Homo sapiens, UniProt P35968); assay type: functional
[10] = target: Macrophage colony-stimulating factor 1 receptor (Homo sapiens, UniProt P07333); assay type: functional;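 note: value comes from the Navigating the Kinome screening panel, CSF1R member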
[11] = target: Activated CDC42 kinase 1 (Homo sapiens, UniProt Q07912); experiment: Navigating the Kinome. Panel member name: ACK1; assay type: functional
[12] = target: Cyclin-dependent kinase 19 (Homo sapiens, UniProt Q9BWU1); experiment: Navigating the Kinome. Panel member name: CDC2L6; assay type: functional
[13] = target: Cyclin-dependent kinase 5 (Homo sapiens, UniProt Q00535); assay type: functional;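 note: CDK5 measured as one member of a kinase profiling panel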
[14] = target: Dual specificity protein kinase CLK4 (Homo sapiens, UniProt Q9HAZ1); assay type: functional
[15] = target: Dual specificity tyrosine-phosphorylation-regulated kinase 1B (Homo sapiens, UniProt Q9Y463); experiment: Navigating the Kinome. Panel member name: DYRK1B; assay type: functional
[16] = target: Cyclin-dependent kinase 8 (Homo sapiens, UniProt P49336); experiment: Navigating the Kinome. Panel member name: CDK8; assay type: functional
[17] = target: Glycogen synthase kinase-3 alpha (Homo sapiens, UniProt P49840); assay type: functional;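 note: GSK3A result taken from a broad kinome-wide kinase panel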
[18] = target: Focal adhesion kinase 1 (Homo sapiens, UniProt Q05397); assay type: functional;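 note: measured as one member of a kinome panel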
[19] = target: Glycogen synthase kinase-3 beta (Homo sapiens, UniProt P49841); assay type: functional;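 note: value comes from a broad kinome profiling panel, with GSK3B as the panel member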
[20] = target: Cyclin-dependent kinase 9 (Homo sapiens, UniProt P50750); assay type: functional;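 note: value from the CDK9 entry of a kinome-spanning kinase panel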
[21] = target: Dual specificity tyrosine-phosphorylation-regulated kinase 1A (Homo sapiens, UniProt Q13627); assay type: functional;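 note: measured against DYRK1A as one member of a broad kinome profiling panel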
[22] = target: cAMP-dependent protein kinase catalytic subunit alpha (Homo sapiens, UniProt P17612); assay type: functional
[23] = target: Death-associated protein kinase 3 (Homo sapiens, UniProt O43293); assay type: functional;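 note: measured as one member of a kinome-wide profiling panel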
[24] = target: Protein kinase C theta type (Homo sapiens, UniProt Q04759); experiment: Navigating the Kinome. Panel member name: PRKCQ; assay type: functional
[25] = target: Homeodomain-interacting protein kinase 2 (Homo sapiens, UniProt Q9H2X6); assay type: functional;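 note: measured within a kinome-wide kinase profiling panel, HIPK2 being one panel member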
[26] = target: Interleukin-1 receptor-associated kinase 4 (Homo sapiens, UniProt Q9NWZ3); assay type: functional
[27] = target: MAP kinase-interacting serine/threonine-protein kinase 2 (Homo sapiens, UniProt Q9HBH9); assay type: functional
[28] = target: Cell division cycle 7-related protein kinase (Homo sapiens, UniProt O00311); assay type: functional;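 note: value obtained from a kinome-wide kinase panel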
[29] = target: Mitogen-activated protein kinase kinase kinase kinase 4 (Homo sapiens, UniProt O95819); assay type: functional
[30] = target: Serine/threonine-protein kinase pim-1 (Homo sapiens, UniProt P11309); assay type: functional
[31] = target: Cyclin-dependent kinase 2 (Homo sapiens, UniProt P24941); assay type: functional;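 note: CDK2 measured as one member of a broad kinome profiling panel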
[32] = target: DNA dC->dU-editing enzyme APOBEC-3A (Homo sapiens, UniProt P31941); experiment: SAR analysis of small molecule inhibitors of APOBEC3A DNA Deaminase via a fluorescence-based single-stranded DNA deaminase assay - Set 2.; assay type: functional; conditions: read-out: IC50_Mean
[33] = target: DNA dC->dU-editing enzyme APOBEC-3G (Homo sapiens, UniProt Q9HC16); experiment: SAR analysis of small molecule inhibitors of APOBEC3G DNA Deaminase via a fluorescence-based single-stranded DNA deaminase assay - Set 2.; assay type: functional; conditions: read-out: IC50_Mean
[34] = target: Sphingosine 1-phosphate receptor 2 (Homo sapiens, UniProt O95136); experiment: activation of human S1P2 receptor – cell-based, fluorescence, set 2, counter-screen for S1P4 agonist project, late-stage follow-up (AID 504873); assay type: functional
[35] = target: Sphingosine 1-phosphate receptor 1 (Homo sapiens, UniProt P21453); experiment: Late-stage fluorescence-based dose-response cell-based counterscreen assay to identify agonists of the Sphingosine 1-Phosphate Receptor 4 (S1P4): Sphingosine 1-Phosphate Receptor 1 (S1P1) agonist assay Set 2.; assay type: functional
[36] = target: Sphingosine 1-phosphate receptor 5 (Homo sapiens, UniProt Q9H228); experiment: activation of human S1P5 receptor – cell-based, fluorescence, set 2, counter-screen for S1P4 agonist project, late-stage follow-up (AID 504867); assay type: functional
[37] = target: Sphingosine 1-phosphate receptor 3 (Homo sapiens, UniProt Q99500); experiment: Late-stage fluorescence-based dose-response cell-based counterscreen assay to identify agonists of the Sphingosine 1-Phosphate Receptor 4 (S1P4): Sphingosine 1-Phosphate Receptor 3 (S1P3) agonist assay Set 2.; assay type: functional
[38] = target: T1, Apoptotic protease-activating factor 1 (Homo sapiens, UniProt O14727); experiment: SAR analysis of small molecule Activators of Apaf-1 in a Fluorescent assay - set 2.; assay type: functional; conditions: read-out: EC50_Mean
T1 sequence (O14727 whole entry): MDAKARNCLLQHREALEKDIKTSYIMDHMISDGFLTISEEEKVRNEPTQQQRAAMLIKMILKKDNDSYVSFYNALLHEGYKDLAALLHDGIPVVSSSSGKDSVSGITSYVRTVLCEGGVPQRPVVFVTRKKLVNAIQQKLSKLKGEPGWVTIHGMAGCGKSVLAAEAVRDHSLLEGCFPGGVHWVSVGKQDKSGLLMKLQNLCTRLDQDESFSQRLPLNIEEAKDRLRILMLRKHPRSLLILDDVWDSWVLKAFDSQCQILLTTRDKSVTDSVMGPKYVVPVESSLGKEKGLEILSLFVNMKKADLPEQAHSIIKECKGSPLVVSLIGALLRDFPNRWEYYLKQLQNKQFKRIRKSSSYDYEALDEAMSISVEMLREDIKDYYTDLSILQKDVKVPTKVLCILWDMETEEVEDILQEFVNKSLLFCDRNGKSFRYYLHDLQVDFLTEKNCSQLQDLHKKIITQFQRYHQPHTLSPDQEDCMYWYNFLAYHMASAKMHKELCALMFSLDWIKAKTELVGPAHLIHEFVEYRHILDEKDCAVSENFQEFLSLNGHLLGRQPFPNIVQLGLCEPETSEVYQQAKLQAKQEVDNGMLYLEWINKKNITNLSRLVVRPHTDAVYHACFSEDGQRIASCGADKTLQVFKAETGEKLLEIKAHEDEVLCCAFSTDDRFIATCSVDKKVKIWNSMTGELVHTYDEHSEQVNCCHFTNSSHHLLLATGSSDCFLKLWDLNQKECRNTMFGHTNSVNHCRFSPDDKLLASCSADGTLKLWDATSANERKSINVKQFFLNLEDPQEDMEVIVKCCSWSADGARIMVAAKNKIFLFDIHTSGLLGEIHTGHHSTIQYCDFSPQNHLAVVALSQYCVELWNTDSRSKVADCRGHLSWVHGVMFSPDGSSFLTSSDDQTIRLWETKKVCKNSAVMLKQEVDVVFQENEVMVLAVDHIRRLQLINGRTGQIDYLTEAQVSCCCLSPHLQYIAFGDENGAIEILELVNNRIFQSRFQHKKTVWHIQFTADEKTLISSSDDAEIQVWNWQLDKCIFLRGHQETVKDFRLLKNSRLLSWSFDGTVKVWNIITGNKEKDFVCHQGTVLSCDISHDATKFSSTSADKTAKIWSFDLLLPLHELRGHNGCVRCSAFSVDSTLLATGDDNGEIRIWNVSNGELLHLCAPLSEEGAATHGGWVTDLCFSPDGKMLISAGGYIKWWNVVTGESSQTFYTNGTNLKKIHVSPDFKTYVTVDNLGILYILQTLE

[39] = SAR analysis of small molecule activators of Apaf-1 using a LZ-Caspase-9/Caspase-3 Fluorescent Selectivity assay - Set 2.; assay type: functional; conditions: read-out: EC50_Mean

Glycogen synthase kinase-3 beta, sequence (P49841 whole entry): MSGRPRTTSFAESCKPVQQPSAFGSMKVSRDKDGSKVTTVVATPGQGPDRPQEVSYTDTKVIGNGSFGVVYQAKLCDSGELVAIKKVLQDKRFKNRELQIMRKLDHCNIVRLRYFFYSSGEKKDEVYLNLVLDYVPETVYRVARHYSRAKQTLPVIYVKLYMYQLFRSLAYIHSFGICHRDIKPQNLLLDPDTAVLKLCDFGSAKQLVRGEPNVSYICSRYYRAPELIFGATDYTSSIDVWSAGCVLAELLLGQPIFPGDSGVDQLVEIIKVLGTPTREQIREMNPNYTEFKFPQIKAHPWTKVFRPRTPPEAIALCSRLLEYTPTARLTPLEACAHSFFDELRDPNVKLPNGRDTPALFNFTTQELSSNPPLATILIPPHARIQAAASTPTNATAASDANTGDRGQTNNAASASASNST
Dual specificity protein kinase CLK4, sequence (Q9HAZ1 whole entry): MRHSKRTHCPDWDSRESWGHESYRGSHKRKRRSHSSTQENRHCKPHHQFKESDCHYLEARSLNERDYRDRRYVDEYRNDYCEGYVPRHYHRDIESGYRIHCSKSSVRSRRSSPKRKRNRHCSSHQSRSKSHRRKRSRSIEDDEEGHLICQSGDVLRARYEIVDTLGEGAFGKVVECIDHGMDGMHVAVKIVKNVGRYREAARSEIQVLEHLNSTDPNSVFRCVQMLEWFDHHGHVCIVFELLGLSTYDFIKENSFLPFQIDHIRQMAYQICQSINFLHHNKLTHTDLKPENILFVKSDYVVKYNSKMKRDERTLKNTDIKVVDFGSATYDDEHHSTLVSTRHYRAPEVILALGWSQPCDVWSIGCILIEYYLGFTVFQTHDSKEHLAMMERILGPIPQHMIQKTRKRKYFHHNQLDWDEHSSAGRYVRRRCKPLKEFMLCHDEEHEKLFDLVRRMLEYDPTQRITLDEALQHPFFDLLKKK
Sphingosine 1-phosphate receptor 2, sequence (O95136 whole entry): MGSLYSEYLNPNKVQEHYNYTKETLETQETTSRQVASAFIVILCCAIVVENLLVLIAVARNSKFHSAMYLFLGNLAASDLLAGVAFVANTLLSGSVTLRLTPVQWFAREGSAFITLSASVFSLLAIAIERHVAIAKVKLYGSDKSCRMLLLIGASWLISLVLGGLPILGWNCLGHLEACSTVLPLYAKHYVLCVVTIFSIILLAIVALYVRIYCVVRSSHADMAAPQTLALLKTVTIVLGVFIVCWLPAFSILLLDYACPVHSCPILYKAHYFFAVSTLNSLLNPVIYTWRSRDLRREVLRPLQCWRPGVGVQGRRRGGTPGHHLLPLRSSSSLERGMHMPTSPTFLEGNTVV
Melanocortin receptor 4, sequence (P32245 whole entry): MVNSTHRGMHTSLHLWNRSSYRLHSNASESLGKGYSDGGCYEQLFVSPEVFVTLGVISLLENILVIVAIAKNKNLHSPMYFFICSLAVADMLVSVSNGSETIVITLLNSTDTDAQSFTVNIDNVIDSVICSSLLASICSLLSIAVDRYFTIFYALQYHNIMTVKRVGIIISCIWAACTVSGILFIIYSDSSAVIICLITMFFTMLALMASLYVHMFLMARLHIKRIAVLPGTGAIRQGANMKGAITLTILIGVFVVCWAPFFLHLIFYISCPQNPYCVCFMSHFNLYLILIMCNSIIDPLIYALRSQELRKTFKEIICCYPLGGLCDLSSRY
Macrophage colony-stimulating factor 1 receptor, sequence (P07333 whole entry): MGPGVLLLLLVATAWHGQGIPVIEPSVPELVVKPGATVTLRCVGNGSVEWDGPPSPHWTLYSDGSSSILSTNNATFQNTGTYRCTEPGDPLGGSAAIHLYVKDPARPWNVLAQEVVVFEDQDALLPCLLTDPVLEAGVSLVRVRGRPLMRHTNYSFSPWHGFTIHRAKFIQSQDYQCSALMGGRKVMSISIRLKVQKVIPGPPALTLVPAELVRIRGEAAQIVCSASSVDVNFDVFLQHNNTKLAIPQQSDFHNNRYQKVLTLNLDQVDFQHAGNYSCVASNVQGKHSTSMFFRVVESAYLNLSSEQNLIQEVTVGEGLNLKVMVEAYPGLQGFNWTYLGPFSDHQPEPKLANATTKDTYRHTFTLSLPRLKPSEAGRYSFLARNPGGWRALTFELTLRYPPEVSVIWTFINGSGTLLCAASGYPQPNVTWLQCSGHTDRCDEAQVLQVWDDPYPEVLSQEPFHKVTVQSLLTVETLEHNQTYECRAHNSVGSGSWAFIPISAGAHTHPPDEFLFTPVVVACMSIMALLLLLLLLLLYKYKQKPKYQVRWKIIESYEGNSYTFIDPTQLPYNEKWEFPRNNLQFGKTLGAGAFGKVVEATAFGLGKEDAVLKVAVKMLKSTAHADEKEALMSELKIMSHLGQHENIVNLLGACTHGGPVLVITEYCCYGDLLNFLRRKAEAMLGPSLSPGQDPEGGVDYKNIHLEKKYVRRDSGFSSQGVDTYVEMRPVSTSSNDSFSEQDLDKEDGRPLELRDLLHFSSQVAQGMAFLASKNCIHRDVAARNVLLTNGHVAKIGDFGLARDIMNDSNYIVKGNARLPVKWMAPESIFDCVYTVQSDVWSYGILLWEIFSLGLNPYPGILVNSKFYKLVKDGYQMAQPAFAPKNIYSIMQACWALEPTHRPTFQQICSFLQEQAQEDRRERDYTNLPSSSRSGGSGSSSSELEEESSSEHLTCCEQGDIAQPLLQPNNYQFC
Homeodomain-interacting protein kinase 2, sequence (Q9H2X6 whole entry): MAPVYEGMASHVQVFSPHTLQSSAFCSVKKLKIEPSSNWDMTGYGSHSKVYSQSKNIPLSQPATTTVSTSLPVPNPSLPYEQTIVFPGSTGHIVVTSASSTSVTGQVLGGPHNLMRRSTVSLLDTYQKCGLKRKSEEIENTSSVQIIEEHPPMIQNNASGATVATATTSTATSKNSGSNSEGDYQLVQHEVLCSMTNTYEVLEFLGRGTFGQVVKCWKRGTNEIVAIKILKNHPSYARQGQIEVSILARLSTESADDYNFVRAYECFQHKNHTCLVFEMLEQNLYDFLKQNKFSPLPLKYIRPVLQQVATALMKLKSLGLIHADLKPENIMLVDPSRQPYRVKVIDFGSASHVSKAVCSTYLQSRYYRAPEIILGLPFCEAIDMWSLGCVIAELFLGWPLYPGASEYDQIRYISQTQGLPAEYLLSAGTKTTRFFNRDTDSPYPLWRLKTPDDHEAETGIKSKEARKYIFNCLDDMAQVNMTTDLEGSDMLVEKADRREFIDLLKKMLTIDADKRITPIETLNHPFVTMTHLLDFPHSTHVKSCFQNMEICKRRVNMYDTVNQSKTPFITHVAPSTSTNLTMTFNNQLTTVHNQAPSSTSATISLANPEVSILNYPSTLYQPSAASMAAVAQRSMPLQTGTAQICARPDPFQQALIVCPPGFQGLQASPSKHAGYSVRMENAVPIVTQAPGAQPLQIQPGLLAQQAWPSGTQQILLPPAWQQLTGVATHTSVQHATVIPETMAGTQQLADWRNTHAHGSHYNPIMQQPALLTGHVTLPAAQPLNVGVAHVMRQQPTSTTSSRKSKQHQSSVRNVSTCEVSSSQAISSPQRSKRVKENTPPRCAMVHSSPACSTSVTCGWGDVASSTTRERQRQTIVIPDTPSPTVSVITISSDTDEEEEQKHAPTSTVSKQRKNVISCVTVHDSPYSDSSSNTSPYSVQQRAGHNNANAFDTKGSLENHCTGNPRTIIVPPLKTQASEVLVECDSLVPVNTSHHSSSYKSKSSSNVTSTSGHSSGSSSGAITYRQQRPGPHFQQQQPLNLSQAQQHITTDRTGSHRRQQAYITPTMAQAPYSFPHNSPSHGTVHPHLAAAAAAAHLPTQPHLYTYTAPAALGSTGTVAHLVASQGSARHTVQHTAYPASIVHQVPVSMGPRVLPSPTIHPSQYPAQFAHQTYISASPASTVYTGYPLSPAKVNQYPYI
Aurora kinase A, sequence (O14965 whole entry): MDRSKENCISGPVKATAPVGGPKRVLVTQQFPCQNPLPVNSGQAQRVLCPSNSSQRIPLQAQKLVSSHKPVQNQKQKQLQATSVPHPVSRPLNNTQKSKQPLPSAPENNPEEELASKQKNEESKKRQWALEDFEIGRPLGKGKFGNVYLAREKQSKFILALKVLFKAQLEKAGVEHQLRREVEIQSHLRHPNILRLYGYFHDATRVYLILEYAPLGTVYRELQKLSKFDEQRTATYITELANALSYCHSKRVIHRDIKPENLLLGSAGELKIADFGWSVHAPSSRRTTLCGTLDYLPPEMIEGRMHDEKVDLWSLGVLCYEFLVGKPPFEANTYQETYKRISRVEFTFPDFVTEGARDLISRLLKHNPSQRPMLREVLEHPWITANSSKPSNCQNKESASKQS
Cell division cycle 7-related protein kinase, sequence (O00311 whole entry): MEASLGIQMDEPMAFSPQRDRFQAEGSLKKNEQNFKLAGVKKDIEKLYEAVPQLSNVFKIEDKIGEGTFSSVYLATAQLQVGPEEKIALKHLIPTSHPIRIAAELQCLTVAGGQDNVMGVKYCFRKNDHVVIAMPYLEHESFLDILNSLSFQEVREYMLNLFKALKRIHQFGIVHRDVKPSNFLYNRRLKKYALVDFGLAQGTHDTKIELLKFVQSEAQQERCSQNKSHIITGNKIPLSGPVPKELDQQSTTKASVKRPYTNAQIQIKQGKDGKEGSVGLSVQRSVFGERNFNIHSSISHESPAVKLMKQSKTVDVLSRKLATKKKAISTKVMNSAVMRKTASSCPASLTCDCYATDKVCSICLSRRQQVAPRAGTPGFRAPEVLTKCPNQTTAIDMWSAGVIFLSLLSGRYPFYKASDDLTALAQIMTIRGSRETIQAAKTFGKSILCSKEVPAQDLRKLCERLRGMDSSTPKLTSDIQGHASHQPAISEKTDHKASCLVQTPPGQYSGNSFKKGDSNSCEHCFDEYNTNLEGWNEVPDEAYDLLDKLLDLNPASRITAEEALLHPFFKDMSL
DNA dC->dU-editing enzyme APOBEC-3A, sequence (P31941 whole entry): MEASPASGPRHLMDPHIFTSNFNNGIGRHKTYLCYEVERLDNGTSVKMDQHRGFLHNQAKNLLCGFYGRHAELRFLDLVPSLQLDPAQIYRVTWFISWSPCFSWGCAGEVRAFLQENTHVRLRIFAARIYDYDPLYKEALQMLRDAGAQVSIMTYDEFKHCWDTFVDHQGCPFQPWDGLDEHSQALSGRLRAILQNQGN

O=C(Nc1ccccc1)OC1CCC2CC1CCC2OC(=O)Nc1ccccc1 (configuration not stated)
inactive: IC50 [1] > 64.6 µM
active: IC50 [2] 7.46 µM

O=c1c(O[C@H]2O[C@@H](CO)[C@H](O)[C@@H](O)[C@@H]2O)c(-c2ccc(O)cc2)oc2cc(O)cc(O)c12
active: AC50 [3] 0.0155 µM

COc1ccc(Oc2c(Cl)cnn(-c3cc(C)cc(C)c3)c2=O)cc1
inactive: CC50 [4] > 20 µM | CC50 [6] > 20 µM
active: IC50 [5] 3.9 µM

O=C1CN2C(=NN1)COc1ccccc12
inactive: Ki [8] > 63.1 µM | Ki [9] > 100 µM | Ki [10] > 100 µM | Ki [12] > 100 µM | Ki [20] > 63.1 µM
active: Ki [7] 50.1 µM | Ki [11] 25.1 µM | Ki [13] 5.01 µM | Ki [14] 3.98 µM | Ki [15] 31.6 µM | Ki [16] 3.98 µM | Ki [17] 50.1 µM | Ki [18] 100 µM | Ki [19] 31.6 µM | Ki [21] 63.1 µM | Ki [22] 39.8 µM | Ki [23] 10 µM | Ki [24] 3.98 µM

O=C(O)c1ccccc1Nc1ccnc(NCc2cccc(O)c2)n1
inactive: Ki [25] > 3.16 µM | Ki [26] > 10 µM | Ki [27] > 10 µM | Ki [31] > 7.94 µM | Ki [22] > 7.94 µM
active: Ki [28] 0.0316 µM | Ki [14] 5.01 µM | Ki [29] 0.631 µM | Ki [30] 2 µM | Ki [19] 1.26 µM

O=C(O)c1cc2nccc(-c3cccs3)n2n1
inactive: IC50 [32] > 99 µM | IC50 [33] > 99 µM

CC/N=C1/S/C(=C/c2cc(C)n(-c3ccc(Cl)cc3F)c2C)C(=O)N1CC
active: EC50 [35] 0.274 µM | EC50 [36] 0.0367 µM
inactive: EC50 [34] > 25 µM | EC50 [37] > 25 µM

CC(CN1CCCC1)C(=O)O (configuration not stated)
inactive: EC50 [38] > 100 µM | EC50 [39] > 100 µM
